Reference: US9120749B2, “Quinoline derivatives and MELK inhibitors containing the same” (ONCOTHERAPY SCIENCE, INC., priority 2010, dated 2015)

What was measured:
[1] = tested on: HT-1197 cells; test: Cell-based assay: anti-proliferative activity, Cell Counting Kit-8, 72 hours (HT-1197, negative control without MELK expression); conditions: Homo sapiens, HT1197, 72 h, HT1197 cells (negative control, no MELK expression), 72 hours
How it was run: (§1)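 Cellular growth is read by CCK-8 colorimetric kit 72 h after inhibitor addition to seeded cells, and IC50 values are derived from the resulting data; MELK protein levels in these lines are checked beforehand by immunoblotting whole crude lysate.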

[2] = tested on: T47D cells; test: Cell-based assay: anti-proliferative activity, Cell Counting Kit-8, 72 hours (T47D); conditions: Homo sapiens, T47D, 72 h
How it was run: as §1

[3] = molecular target: MELK (Homo sapiens, UniProt Q14680); test: Kinase assay: MELK activity, phosphorylation of FITC-labeled histone H3 peptide measured by IMAP fluorescence polarization; format: biochemical; conditions: read-out: IC50 (μM) (kinase assay)
How it was run: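 FP readout: FITC-histone H3 peptide phosphorylation, read 0.5 h (RT) after stopping with 3x volume of IMAP progressive binding solution. Final DMSO 1%.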

[4] = tested on: A549 cells; test: Cell-based assay: anti-proliferative activity, Cell Counting Kit-8, 72 hours (A549); conditions: Homo sapiens, A549, 72 h, 72 hours
How it was run: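 Cell Counting Kit-8 read-out of A549 growth after 72 hours of inhibitor exposure, cells plated in 96-well format. Values reported as IC50.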

[5] = tested on: DU4475 cells; test: Cell-based assay: anti-proliferative activity, Cell Counting Kit-8, 72 hours (DU4475); conditions: Homo sapiens, DU-4475, 72 h

MELK, sequence (Q14680 whole entry, looked up): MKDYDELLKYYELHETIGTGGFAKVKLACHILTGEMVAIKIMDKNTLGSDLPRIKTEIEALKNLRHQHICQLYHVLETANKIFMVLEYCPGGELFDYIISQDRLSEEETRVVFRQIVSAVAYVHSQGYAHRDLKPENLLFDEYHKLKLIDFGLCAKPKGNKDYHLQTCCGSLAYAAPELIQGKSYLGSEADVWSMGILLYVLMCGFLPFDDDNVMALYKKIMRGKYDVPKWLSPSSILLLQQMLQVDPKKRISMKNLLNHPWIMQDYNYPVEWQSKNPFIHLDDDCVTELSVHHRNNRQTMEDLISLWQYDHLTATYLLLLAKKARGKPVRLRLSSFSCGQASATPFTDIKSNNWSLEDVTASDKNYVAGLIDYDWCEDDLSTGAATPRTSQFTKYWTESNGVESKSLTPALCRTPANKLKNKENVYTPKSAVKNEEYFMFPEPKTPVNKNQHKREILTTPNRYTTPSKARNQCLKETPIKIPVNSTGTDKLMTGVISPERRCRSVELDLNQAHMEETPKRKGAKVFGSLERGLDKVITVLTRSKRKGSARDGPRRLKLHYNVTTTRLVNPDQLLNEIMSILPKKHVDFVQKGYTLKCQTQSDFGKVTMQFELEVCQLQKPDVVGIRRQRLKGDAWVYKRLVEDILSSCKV

| Compound | IC50 [1] [µM] | IC50 [2] [µM] | IC50 [3] [µM] | IC50 [4] [µM] | IC50 [5] [µM] |
| --- | --- | --- | --- | --- | --- |
| CC(=O)c1cnc2ccc(-c3cc(F)c(O)c(Cl)c3)cc2c1Nc1ccc(CN2CCN(C)CC2)cc1 [Example 656, 1-(6-(3-chloro-5-fluoro-4-hydroxyphenyl)-4-(4-((4-methylpiperazin-1-yl)methyl)phenylamino)quinolin-3-yl)ethanone] | 6.1 | 0.19 | 0.033 | 0.41 | 0.27 |
| CN(C)Cc1ccc(Nc2c(C(=O)C3CC3)cnc3ccc(-c4cc(Cl)c(O)c(Cl)c4)cc23)cn1 [Example 657, Cyclopropyl{6-(3,5-dichloro-4-hydroxyphenyl)-4-[6-((dimethylamino)methyl)pyridin-3-ylamino]quinolin-3-yl}methanone] | 2.8 | 0.31 | 0.0089 | 0.18 | 0.098 |
| O=C(c1cnc2ccc(-c3cc(Cl)c(O)c(Cl)c3)cc2c1Nc1ccc(CN2CCCC2)nc1)C1CC1 [Example 658, Cyclopropyl{6-(3,5-dichloro-4-hydroxyphenyl)-4-[6-(pyrrolidin-1-ylmethyl)pyridin-3-ylamino]quinolin-3-yl}methanone] | 4.5 | 0.3 | 0.0078 | 0.072 | 0.07 |
| COc1cc(-c2ccc3ncc(C(=O)C4CC4)c(Nc4ccc(CN5CCCC5)nc4)c3c2)cc(Cl)c1O [Example 659, (6-(3-chloro-4-hydroxy-5-methoxyphenyl)-4-(6-(pyrrolidin-1-ylmethyl)pyridin-3-ylamino)quinolin-3-yl)(cyclopropyl)methanone] | 7.3 | 0.6 | 0.013 | 0.32 | 0.28 |
| COc1cc(-c2ccc3ncc(C(=O)C4CC4)c(Nc4ccc(N5CCC[C@H](N)C5)nc4)c3c2)cc(Cl)c1O [Example 660, (S)-(4-(6-(3-aminopiperidin-1-yl)pyridin-3-ylamino)-6-(3-chloro-4-hydroxy-5-methoxyphenyl)quinolin-3-yl)(cyclopropyl)methanone] | 2.9 | 0.1 | 0.0024 | 0.22 | 0.046 |
| COC1CCN(C2CCC(Nc3c(C(=O)C4CC4)cnc4ccc(-c5cc(Cl)c(O)c(Cl)c5)cc34)CC2)C1 (stereo not shown) [Example 661, cyclopropyl(6-(3,5-dichloro-4-hydroxyphenyl)-4-(4-(3-methoxypyrrolidin-1-yl)cyclohexylamino)quinolin-3-yl)methanone] | 1.4 | 0.25 | 0.0018 | 0.17 | 0.1 |
| CN(C)C1CCN(C[C@H]2CC[C@H](Nc3c(C(=O)C4CC4)cnc4ccc(-c5cc(F)c(O)c(Cl)c5)cc34)CC2)C1 (stereo partly shown) [Example 662] | 0.95 | 0.19 | 0.004 | 0.15 | 0.14 |
| COc1cc(-c2ccc3ncc(C(=O)C4CC4)c(Nc4ccc(NC5CCNC5)nc4)c3c2)cc(Cl)c1O (stereo not shown) [Example 665, (6-(3-chloro-4-hydroxy-5-methoxyphenyl)-4-(6-(pyrrolidin-3-ylamino)pyridin-3-ylamino)quinolin-3-yl)(cyclopropyl)methanone] | 3.7 | 0.16 | 0.0033 | 0.53 | 0.22 |
| O=C(c1cnc2ccc(-c3cc(Cl)c(O)c(Cl)c3)cc2c1Nc1ccc(NC2CCNC2)nc1)C1CC1 (stereo not shown) [Example 666, cyclopropyl(6-(3,5-dichloro-4-hydroxyphenyl)-4-(6-(pyrrolidin-3-ylamino)pyridin-3-ylamino)quinolin-3-yl)methanone] | 10 | 0.34 | 0.024 | 10 | 0.071 |
| O=C(c1cnc2ccc(-c3cc(F)c(O)c(Cl)c3)cc2c1Nc1ccc(NC2CCNC2)nc1)C1CC1 (stereo not shown) [Example 667, (6-(3-chloro-5-fluoro-4-hydroxyphenyl)-4-(6-(pyrrolidin-3-ylamino)pyridin-3-ylamino)quinolin-3-yl)(cyclopropyl)methanone] | 10 | 0.17 | 0.01 | 7.7 | 0.077 |
| COc1cc(-c2ccc3ncc(C(=O)C4CC4)c(N[C@H]4CC[C@H](CN5CCC(N(C)C)C5)CC4)c3c2)cc(Cl)c1O (stereo partly shown) [Example 668] | 2.6 | 1 | 0.0039 | 0.56 | 1.4 |
| COc1cc(-c2ccc3ncc(C(=O)C4CC4)c(Nc4ccc(N5CCC(O)C5)nc4)c3c2)cc(Cl)c1O (stereo not shown) [Example 669, (6-(3-chloro-4-hydroxy-5-methoxyphenyl)-4-(6-(3-hydroxypyrrolidin-1-yl)pyridin-3-ylamino)quinolin-3-yl)(cyclopropyl)methanone] | 4.4 | 0.24 | 0.012 | 0.46 | 0.75 |
| O=C(c1cnc2ccc(-c3cc(Cl)c(O)c(Cl)c3)cc2c1Nc1ccc(N2CCC(O)C2)nc1)C1CC1 (stereo not shown) [Example 670, cyclopropyl(6-(3,5-dichloro-4-hydroxyphenyl)-4-(6-(3-hydroxypyrrolidin-1-yl)pyridin-3-ylamino)quinolin-3-yl)methanone] | 5.3 | 0.43 | 0.0069 | 0.72 | 0.59 |
| O=C(c1cnc2ccc(-c3cc(F)c(O)c(Cl)c3)cc2c1Nc1ccc(N2CCC(O)C2)nc1)C1CC1 (stereo not shown) [Example 671, (6-(3-chloro-5-fluoro-4-hydroxyphenyl)-4-(6-(3-hydroxypyrrolidin-1-yl)pyridin-3-ylamino)quinolin-3-yl)(cyclopropyl)methanone] | 4.9 | 0.3 | 0.025 | 0.85 | 0.52 |
| O=C(c1cnc2ccc(-c3cc(F)c(O)c(Cl)c3)cc2c1Nc1ccc(CN2CCCC2)nc1)C1CC1 [Example 672, (6-(3-chloro-5-fluoro-4-hydroxyphenyl)-4-(6-(pyrrolidin-1-ylmethyl)pyridin-3-ylamino)quinolin-3-yl)(cyclopropyl)methanone] | 3.2 | 0.39 | 0.014 | 0.17 | 0.16 |
| CN(C)C[C@]1(O)CC[C@@H](Nc2c(C(=O)C3CC3)cnc3ccc(-c4cc(F)c(O)c(Cl)c4)cc23)CC1 [Example 673, (6-(3-chloro-5-fluoro-4-hydroxyphenyl)-4-((cis-4-((dimethylamino)methyl)-4-hydroxycyclohexyl)amino)quinolin-3-yl)(cyclopropyl)methanone] | 1.4 | 0.16 | 0.0042 | 0.16 | 0.089 |
| CC(C)C(=O)c1cnc2ccc(-c3cc(F)c(O)c(Cl)c3)cc2c1Nc1ccc(N2CCNCC2)nc1 [Example 674, 1-(6-(3-chloro-5-fluoro-4-hydroxyphenyl)-4-(6-(piperazin-1-yl)pyridin-3-ylamino)quinolin-3-yl)-2-methylpropan-1-one] | 2.4 | 0.11 | 0.0069 | 0.46 | 0.15 |
| COc1cc(-c2ccc3ncc(C(=O)C4CC4)c(Nc4ccc(NCCO)nc4)c3c2)cc(Cl)c1O [Example 677, (6-(3-chloro-4-hydroxy-5-methoxyphenyl)-4-(6-(2-hydroxyethylamino)pyridin-3-ylamino)quinolin-3-yl)(cyclopropyl)methanone] | 1.5 | 0.33 | 0.014 | 0.36 | 0.38 |
| O=C(c1cnc2ccc(-c3cc(Cl)c(O)c(Cl)c3)cc2c1Nc1ccc(NCCO)nc1)C1CC1 [Example 678, cyclopropyl(6-(3,5-dichloro-4-hydroxyphenyl)-4-(6-(2-hydroxyethylamino)pyridin-3-ylamino)quinolin-3-yl)methanone] | 5.1 | 0.41 | 0.011 | 1.2 | 0.11 |
| O=C(c1cnc2ccc(-c3cc(F)c(O)c(Cl)c3)cc2c1Nc1ccc(NCCO)nc1)C1CC1 [Example 679, (6-(3-chloro-5-fluoro-4-hydroxyphenyl)-4-(6-(2-hydroxyethylamino)pyridin-3-ylamino)quinolin-3-yl)(cyclopropyl)methanone] | 3.7 | 0.23 | 0.03 | 1.3 | 0.12 |
| COc1cc(-c2ccc3ncc(C(=O)C(C)C)c(Nc4ccc(N5CCNCC5)nc4)c3c2)cc(Cl)c1O [Example 680, 1-(6-(3-chloro-4-hydroxy-5-methoxyphenyl)-4-(6-(piperazin-1-yl)pyridin-3-ylamino)quinolin-3-yl)-2-methylpropan-1-one] | 2.4 | 0.59 | 0.011 | 1.3 | 1 |
| CC(=O)c1cnc2ccc(-c3cc(Cl)c(O)c(Cl)c3)cc2c1Nc1ccc(N2CCCC(N)C2)nc1 (stereo not shown) [Example 681, 1-(4-(6-(3-aminopiperidin-1-yl)pyridin-3-ylamino)-6-(3,5-dichloro-4-hydroxyphenyl)quinolin-3-yl)ethanone] | 0.25 | 0.0046 | 0.00086 | 0.017 | 0.0085 |
| CN1CCN(Cc2ccc(Nc3c(C(=O)C4CC4)cnc4ccc(-c5cc(Cl)c(O)c(Cl)c5)cc34)cn2)CC1 [Example 682, cyclopropyl(6-(3,5-dichloro-4-hydroxyphenyl)-4-(6-((4-methylpiperazin-1-yl)methyl)pyridin-3-ylamino)quinolin-3-yl)methanone] | 14 | 0.55 | 0.018 | 0.7 | 0.32 |
